# Data published in article PMC10447267, “Assessment of the potential of the MET inhibitor tepotinib to affect the pharmacokinetics of CYP3A4 and P-gp substrates” (Investigational New Drugs, 2023).
# Like-named read-outs stand apart in the source and are kept apart here.
# Key:
# Type in all cases: in vitro ADME
# CYP2A6 = biological target: T1, CYP2A6 (Homo sapiens, UniProt P11509); assay: CYP2A6 inhibition in pooled human liver microsomes; settings: Coumarin 7-hydroxylation; for inhibition at 49.5 µM: both sexes, human, pooled human liver microsomes, probe coumarin
# T1 construct: pooled mixed-gender human liver microsomes; from tissue; host or cells: pooled mixed-gender human liver microsomes
# T1 sequence (P11509 1-494): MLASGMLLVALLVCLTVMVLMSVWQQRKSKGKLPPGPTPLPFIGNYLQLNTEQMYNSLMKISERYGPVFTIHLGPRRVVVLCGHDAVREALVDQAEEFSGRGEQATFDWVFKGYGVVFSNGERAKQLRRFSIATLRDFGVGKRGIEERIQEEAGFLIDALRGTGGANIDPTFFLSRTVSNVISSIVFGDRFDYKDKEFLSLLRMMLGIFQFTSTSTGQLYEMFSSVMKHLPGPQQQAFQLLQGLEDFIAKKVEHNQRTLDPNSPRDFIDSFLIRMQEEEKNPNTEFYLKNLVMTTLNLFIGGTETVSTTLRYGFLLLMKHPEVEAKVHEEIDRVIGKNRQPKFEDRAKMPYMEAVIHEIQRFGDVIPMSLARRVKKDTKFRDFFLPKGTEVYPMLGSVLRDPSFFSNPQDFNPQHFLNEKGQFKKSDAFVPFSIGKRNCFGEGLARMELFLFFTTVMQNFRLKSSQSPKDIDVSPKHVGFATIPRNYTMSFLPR
# Procedure: (§1) The potential of tepotinib and MSC2571109A to inhibit CYP450 enzymes CYP1A2, 2A6, 2B6, 2C8, 2C9, 2C19, 2D6, 2E1, and 3A4/5 in vitro was evaluated using CYP-catalyzed reactions in pooled mixed-gender human liver microsomes using specific substrates and liquid chromatography/tandem mass spectrometry (LC–MS/MS) readouts. […] Testosterone 6β-hydroxylation was assessed in the MSC2571109A study. Assessments of mechanism-based inhibition of the above listed CYP450 enzymes were conducted after pre-incubation of the microsomes with tepotinib or MSC2571109A. A brief summary of the incubation methods, including details of substrates used for the other CYP enzymes (which are not pertinent to this article) are presented in Online Resource 1. The LC–MS/MS-based methods used were consistent with those previously described in the literature.
# CYP2C8 = biological target: T2, CYP2C8 (Homo sapiens, UniProt P10632); assay: CYP2C8 inhibition in pooled human liver microsomes; settings: Amodiaquine N-dealkylation
# T2 sequence (P10632 1-490): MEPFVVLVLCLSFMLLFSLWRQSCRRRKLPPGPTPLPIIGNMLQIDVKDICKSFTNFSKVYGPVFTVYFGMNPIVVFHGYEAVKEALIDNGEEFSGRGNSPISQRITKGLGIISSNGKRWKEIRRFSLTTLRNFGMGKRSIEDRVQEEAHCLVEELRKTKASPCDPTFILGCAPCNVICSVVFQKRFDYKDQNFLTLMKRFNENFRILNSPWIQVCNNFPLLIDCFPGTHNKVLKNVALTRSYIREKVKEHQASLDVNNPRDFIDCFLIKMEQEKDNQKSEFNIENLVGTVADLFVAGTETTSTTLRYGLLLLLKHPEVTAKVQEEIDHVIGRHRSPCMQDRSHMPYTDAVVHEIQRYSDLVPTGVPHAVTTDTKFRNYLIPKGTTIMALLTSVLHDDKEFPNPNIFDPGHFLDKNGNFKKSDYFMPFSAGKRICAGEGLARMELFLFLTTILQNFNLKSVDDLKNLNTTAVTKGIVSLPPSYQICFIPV
# Procedure: as §1
# CYP1A1/2 = CYP1A1/2 activity induction in primary human hepatocyte cultures; settings: enzyme activity quantification
# Procedure: In vitro studies in primary human hepatocyte cultures were conducted to assess the potential of tepotinib to induce human CYP1A1/2, 2B6 and 3A4/5 activity, the latter based on testosterone 6β-hydroxylation reactions (Online Resource 2). […] The studies included positive (rifampin) and vehicle (DMSO) controls. A negative control (flumazenil) was also included in the mRNA studies. The study designs, test systems and selection of prototypical inducers used in these studies were consistent with PhRMA, FDA and EMA guidelines.
# [1] = 30-min preincubation, read-out: Time-dependent inhibition IC50
# [2] = human liver microsomes, zero-minute preincubation, read-out: Direct inhibition IC50
smiles,measurement,setting,value
CN1CCC(COc2cnc(-c3cccc(Cn4nc(-c5cccc(C#N)c5)ccc4=O)c3)nc2)CC1 [tepotinib],Potential for time-dependent inhibition,CYP2A6,Little or No
same,IC50,CYP2A6; [1],39 µM
same,inhibition at 49.5 µM,"CYP2A6; 30-min preincubation, read-out: Time-dependent inhibition, maximum inhibition at 49.5 µM",52%
same,inhibition at 49.5 µM,"CYP2A6; zero-minute preincubation, read-out: Direct inhibition, maximum inhibition at 49.5 µM",51%
same,IC50,CYP2A6; [2],> 49.5 µM
same,Potential for time-dependent inhibition,CYP2C8,Little or No
same,IC50,CYP2C8; [1],13 µM
same,Type of inhibition,CYP2C8; direct inhibition,Mixed
same,inhibition at 49.5 µM,"CYP2C8; both sexes, human, pooled human liver microsomes, probe amodiaquine, zero-minute preincubation, 49.5 µM, read-out: Direct inhibition, maximum inhibition at 49.5 µM",86%
same,Ki,"CYP2C8; human liver microsomes, read-out: Direct inhibition Ki",11 µM
same,IC50,CYP2C8; [2],16 µM
same,Induction of CYP1A1/2 activity,CYP1A1/2,less than 40 % of positive control
